Results: patent US12496346B2, “Phospholipid-flavagline conjugates and methods of using the same for targeted cancer therapy” (Cellectar Biosciences, Inc., priority 2019, dated 2025)

Legend:
[1] = system: A549 (human lung adenocarcinoma); assay: cells; assay type: cell-based
[2] = system: A375 (human malignant melanoma); assay: IC50 of PLE-flavagline conjugates in cell lines; assay type: cell-based; settings: A-375, read-out: IC50 A375
[3] = system: HCT 116 (human colon cancer); assay: IC50 of PLE-flavagline conjugates in cell lines; assay type: cell-based; settings: HCT-116, read-out: IC50 HCT 116
[4] = system: A375 and A549 cells; assay: FLV3 levels in cell lysate and growth media by LC/MS; assay type: cell-based, human; settings: after 24 hours, CLR 1852 and FLV3 alone administered
Protocol: The levels of FLV3 in cell lysate and growth media were measured using LC/MS. […] Levels of intracellular FLV3 appeared to plateau at 24 hours, while extracellular levels of FLV3 continued to increase.

[5] = in vivo; assay type: in vivo, mice
Protocol: Listed in Table 5 are the doses administered to the mice, and how many mice were alive after treatment (“3/3” indicates 3 out of 3 mice were alive). […] MTD for CLR 1865 was between 5 and 10 mg/kg.

[6] = system: NHDF (normal human dermal fibroblasts); assay: IC50 of PLE-flavagline conjugates in cell lines; assay type: cell-based; settings: read-out: IC50 NHDF
[7] = system: Colon DLDI; assay: Tumor uptake of PLE; assay type: in vivo; settings: SCID Mouse, Colorectal adenocarcinoma
Protocol: (§1) Tumor cell uptake was measured continuously for 24 hours.

[8] = system: Adrenal H-295; assay: Tumor uptake of PLE; assay type: in vivo; settings: SCID Mouse, Adenocarcinoma
Protocol: as §1

[9] = system: SCC6; assay: Tumor uptake of PLE; assay type: in vivo; settings: Nude Mouse, Adenocarcinoma
Protocol: as §1

[10] = system: Lung A-549 (NSCLC); assay: Tumor uptake of PLE; assay type: in vivo; settings: SCID Mouse, Adenocarcinoma
Protocol: as §1

[11] = system: Cervical; assay: Tumor uptake of PLE; assay type: in vivo; settings: Endogenous Mouse, Adenocarcinoma
Protocol: as §1

[12] = system: ColonLS180; assay: Tumor uptake of PLE; assay type: in vivo; settings: SCID Mouse, Colorectal adenocarcinoma
Protocol: as §1

[13] = system: Pancreatic c-myc; assay: Tumor uptake of PLE; assay type: in vivo; settings: Endogenous Mouse, Adenocarcinoma
Protocol: as §1

[14] = system: Lung NCI H-69 (Oat Cell); assay: Tumor uptake of PLE; assay type: in vivo; settings: SCID Mouse, Adenocarcinoma
Protocol: as §1

[15] = system: Melanoma A-375; assay: Tumor uptake of PLE; assay type: in vivo; settings: Nude Mouse, Adenocarcinoma
Protocol: as §1

[16] = system: Pancreatic BXPC3; assay: Tumor uptake of PLE; assay type: in vivo; settings: Nude Mouse, Adenocarcinoma
Protocol: as §1

[17] = system: Breast 4T1; assay: Tumor uptake of PLE; assay type: in vivo; settings: Endogenous Mouse (orthotopic), Adenocarcinoma
Protocol: as §1

[18] = system: Min Mouse Intestinal; assay: Tumor uptake of PLE; assay type: in vivo; settings: Endogenous Mouse, Adenocarcinoma
Protocol: as §1

[19] = system: Colon-51; assay: Tumor uptake of PLE; assay type: in vivo; settings: SCID Mouse, Colorectal adenocarcinoma
Protocol: as §1

[20] = system: Pancreatic Kras; assay: Tumor uptake of PLE; assay type: in vivo; settings: Endogenous Mouse, Adenocarcinoma
Protocol: as §1

[21] = system: Walker-256; assay: Tumor uptake of PLE; assay type: in vivo; settings: Rat, Carcinosarcoma
Protocol: as §1

[22] = system: Colon HT-29; assay: Tumor uptake of PLE; assay type: in vivo; settings: SCID Mouse, Colorectal adenocarcinoma
Protocol: as §1

[23] = system: Melanoma; assay: Tumor uptake of PLE; assay type: in vivo; settings: Mouse, Adenocarcinoma
Protocol: as §1

[24] = system: Glioma CNS1; assay: Tumor uptake of PLE; assay type: in vivo; settings: Rat xenograft
Protocol: as §1

[25] = system: Glioma C6; assay: Tumor uptake of PLE; assay type: in vivo; settings: Rat xenograft
Protocol: as §1

[26] = system: Prostate LuCap; assay: Tumor uptake of PLE; assay type: in vivo; settings: Mouse, Adenocarcinoma
Protocol: as §1

[27] = system: Breast MCF-7; assay: Tumor uptake of PLE; assay type: in vivo; settings: Rat, Adenocarcinoma
Protocol: as §1

[28] = system: Glioma RG2; assay: Tumor uptake of PLE; assay type: in vivo; settings: Rat xenograft
Protocol: as §1

[29] = system: Glioma L9; assay: Tumor uptake of PLE; assay type: in vivo; settings: Rat xenograft
Protocol: as §1

[30] = system: Mammary SCC; assay: Tumor uptake of PLE; assay type: in vivo; settings: Apc^Min/+ mouse, Squamous cell carcinoma
Protocol: as §1

[31] = system: Colon LS-180; assay: Tumor uptake of PLE; assay type: in vivo; settings: Nude Mouse, Adenocarcinoma
Protocol: as §1

[32] = system: Prostate PC-3; assay: Tumor uptake of PLE; assay type: in vivo; settings: SCID Mouse, Adenocarcinoma
Protocol: as §1

[33] = system: Colon CT-26; assay: Tumor uptake of PLE; assay type: in vivo; settings: SCID Mouse, Adenocarcinoma
Protocol: as §1

[34] = system: Pancreatic Capan-1; assay: Tumor uptake of PLE; assay type: in vivo; settings: Nude Mouse, Adenocarcinoma
Protocol: as §1

[35] = system: Ovarian HTB-77; assay: Tumor uptake of PLE; assay type: in vivo; settings: Nude Mouse, Adenocarcinoma
Protocol: as §1

[36] = system: Mammary AC; assay: Tumor uptake of PLE; assay type: in vivo; settings: Apc^Min/+ mouse, Adenocarcinoma
Protocol: as §1

[37] = system: TRAMP prostate; assay: Tumor uptake of PLE; assay type: in vivo; settings: Endogenous Mouse, Adenocarcinoma
Protocol: as §1

[38] = system: SCC1; assay: Tumor uptake of PLE; assay type: in vivo; settings: Nude Mouse, Squamous cell carcinoma
Protocol: as §1

[39] = system: Adrenal RL-251; assay: Tumor uptake of PLE; assay type: in vivo; settings: SCID Mouse, Adenocarcinoma
Protocol: as §1

[40] = system: Retinoblastoma; assay: Tumor uptake of PLE; assay type: in vivo; settings: Endogenous Mouse, Blastoma
Protocol: as §1

[41] = system: Renal Cell Caki-2; assay: Tumor uptake of PLE; assay type: in vivo; settings: Nude Mouse (orthotopic), Adenocarcinoma
Protocol: as §1

[42] = system: Sarcoma (Meth-A); assay: Tumor uptake of PLE; assay type: in vivo; settings: Nude Mouse, Fibrosarcoma
Protocol: as §1

[43] = system: Prostate MatLyLu; assay: Tumor uptake of PLE; assay type: in vivo; settings: Rat, Adenocarcinoma
Protocol: as §1

[44] = system: Prostate LnCap; assay: Tumor uptake of PLE; assay type: in vivo; settings: Mouse, Adenocarcinoma
Protocol: as §1

[45] = system: Renal Cell ACHN; assay: Tumor uptake of PLE; assay type: in vivo; settings: Nude Mouse (orthotopic), Adenocarcinoma
Protocol: as §1

[46] = system: Esophageal; assay: Tumor uptake of PLE; assay type: in vivo; settings: Endogenous Mouse, Adenocarcinoma
Protocol: as §1

[47] = system: Hepatocellular Carcinoma; assay: Tumor uptake of PLE; assay type: in vivo; settings: Endogenous Mouse, Adenocarcinoma
Protocol: as §1

[48] = system: Caki-2 tumor cells (human clear cell renal cell carcinoma); assay: Selective uptake of PDC in co-culture; assay type: cell-based; settings: 5 μM, 24 hours, co-culture with normal fibroblast
Protocol: (§2) Normal fibroblast and Caki-2 tumor cells (human clear cell renal cell carcinoma) were plated and co-cultured overnight (FIG. 1F). […] The next day cells were washed and co-stained with nucleus stain (Hoescht 33342). CLR 1501 was excited and then detected with an Alexa-Fluor 488 filter.

[49] = system: Human prostate adenocarcinoma cells (PC3); assay: Co-localization with endoplasmic reticulum; assay type: cell-based; settings: 5 μM, 24 hours, ER-tracker
Excerpt: After washing, the cells were co-stained with ER-tracker® per protocol and imaged using Nikon A1R confocal light microscope. CLR 1501 and ER were excited and detected using Alexa-Fluor 488 using standard fluorescein filters.

[50] = system: A549 cells; assay: Uptake of PDC after disruption of lipid rafts; assay type: cell-based, human; settings: lipid rafts disrupted with methyl b-cyclodextrin vs untreated cells; 5 μM, 24 hours
Protocol: A549 cells were plated overnight into separate wells.

[51] = system: PC3 (grade IV, human prostate adenocarcinoma) cell lines; assay: Co-localization with mitochondria; assay type: cell-based; settings: 5 μM, 24 hours, Mitotracker
Excerpt: The cells were observed using Nikon A1R confocal microscope.

[52] = system: Normal fibroblast; assay: Selective uptake of PDC in co-culture; assay type: cell-based; settings: 5 μM, 24 hours, co-culture with Caki-2
Protocol: as §2

[53] = In vitro cytotoxicity of CLR 1899; assay type: cell-based; settings: human, NHDF (normal dermal fibroblasts); read-out: Minimum % viability
Protocol: CLR 1899 was administered to cell lines A375 (human malignant melanoma), A549 (human lung adenocarcinoma), HCT 116 (human colon cancer), and NHDF (normal human dermal fibroblasts).

[54] = In vivo tolerability, body weight changes; set-up: species or system C57BL/6 mice; settings: intravenous, repeat dosing, 0.5, 1.0 or 2.0 mg/kg
Protocol: To determine whether CLR 1899 is tolerated in vivo, the compound was administered intravenously to healthy C57BL/6 mice at dose levels of 0.5 mg/kg, 1.0 mg/kg, or 2.0 mg/kg, and body weight changes were observed (FIG. 12). […] The in vivo efficacy of CLR 1899 was studied in MCF-7 xenograft model (FIG. 13, 10 mice per dose group). Reduction in tumor volume was recorded.

[55] = system: Intestinal Polyp; assay: Uptake in benign tissues; assay type: in vivo; settings: Endogenous Mouse, Adenoma (benign)
[56] = system: Mammary alveolar hyperplasia; assay: Uptake in benign tissues; assay type: in vivo; settings: Endogenous Mouse

## COC(=O)[C@@H]1[C@H](O)[C@]2(O)c3c(OC)cc(OCCCCN)cc3O[C@]2(c2ccc(OC)cc2)[C@H]1c1ccccc1 [FLV3]
[1]; Homo sapiens, A549, read-out: IC50 A549
  IC50: 0.09 µM
[1]; in vitro, NHDF IC50 relative to cancer cell IC50
  Therapeutic Index (TI): 0.89
[2]
  IC50: 0.015 µM
[3]
  IC50: 0.009 µM
[4]
  levels of FLV3 in the cell lysate: high levels
  levels of FLV3 in the growth media: Moderate levels
[5]; Dose 0.1 mg/kg
  mice alive after treatment: 3/3
[5]; Dose 0.25 mg/kg
  mice alive after treatment: 3/3
[6]
  IC50: 0.008 µM

## C[N+](C)(C)CCOP(=O)([O-])OCCCCCCCCCCCCCCCCCCc1ccc(C2=C3C=CC=[N+]3[B-](F)(F)n3cccc32)cc1 [CLR 1501]
[7]
  Tumor Uptake: Yes
[8]
  Tumor Uptake: Yes
[9]
  Tumor Uptake: Yes
[10]
  Tumor Uptake: Yes
[11]
  Tumor Uptake: Yes
[12]
  Tumor Uptake: Yes
[13]
  Tumor Uptake: Yes
[14]
  Tumor Uptake: Yes
[15]
  Tumor Uptake: Yes
[16]
  Tumor Uptake: Yes
[17]
  Tumor Uptake: Yes
[18]
  Tumor Uptake: Yes
[19]
  Tumor Uptake: Yes
[20]
  Tumor Uptake: Yes
[21]
  Tumor Uptake: Yes
[22]
  Tumor Uptake: Yes
[23]
  Tumor Uptake: Yes
[24]
  Tumor Uptake: Yes
[25]
  Tumor Uptake: Yes
[26]
  Tumor Uptake: Yes
[27]
  Tumor Uptake: Yes
[28]
  Tumor Uptake: Yes
[29]
  Tumor Uptake: Yes
[30]
  Tumor Uptake: Yes
[31]
  Tumor Uptake: Yes
[32]
  Tumor Uptake: Yes
[33]
  Tumor Uptake: Yes
[34]
  Tumor Uptake: Yes
[35]
  Tumor Uptake: Yes
[36]
  Tumor Uptake: Yes
[37]
  Tumor Uptake: Yes
[38]
  Tumor Uptake: Yes
[39]
  Tumor Uptake: Yes
[40]
  Tumor Uptake: Yes
[41]
  Tumor Uptake: Yes
[42]
  Tumor Uptake: Yes
[43]
  Tumor Uptake: Yes
[44]
  Tumor Uptake: Yes
[45]
  Tumor Uptake: Yes
[46]
  Tumor Uptake: Yes
[47]
  Tumor Uptake: Yes
[48]
  localization in Caki-2 cells: highly localized
[49]
  co-localization with ER: co-localized with ER in malignant
[50]
  reduction in uptake: 60%
[51]
  co-localization with mitochondria: co-localized with mitochondria
[52]
  localization in normal fibroblast cells: minimally

## COC(=O)[C@H]1[C@@H](O)[C@@]2(O)c3c(OC)cc(OCCCCNC(=O)CNC(=O)CNC(=O)CNC(=O)c4ccc(CCCCCCCCCCCCCCCCCCOP(=O)([O-])OCC[N+](C)(C)C)cc4)cc3O[C@@]2(c2ccc(OC)cc2)[C@@H]1c1ccccc1 [CLR 1899]
[53]
  viability: 41.7%
[54]
  toxicity or adverse events as measured by changes in weight: no toxicity or adverse events

## C[N+](C)(C)CCOP(=O)([O-])OCCCCCCCCCCCCCCCCCCc1ccc(I)cc1 [CLR1404]
[55]
  Tumor Uptake: No
[56]
  Tumor Uptake: No
